The record followed here is ChEMBL document CHEMBL2074459, “Coordinate induction by antioxidants of UDP-glucuronosyltransferase UGT1A6 and the apical conjugate export pump MRP2 (multidrug resistance protein 2) in Caco-2 cells” (Biochem Pharmacol, 2000).

The target of this series is ATP-binding cassette sub-family C member 2 (Homo sapiens, UniProt Q92887). In words: TP_TRANSPORTER: Immunoblot analysis in Caco-2 cells. It is filed as functional, cell-based.
Chain of ATP-binding cassette sub-family C member 2 (Q92887 whole entry): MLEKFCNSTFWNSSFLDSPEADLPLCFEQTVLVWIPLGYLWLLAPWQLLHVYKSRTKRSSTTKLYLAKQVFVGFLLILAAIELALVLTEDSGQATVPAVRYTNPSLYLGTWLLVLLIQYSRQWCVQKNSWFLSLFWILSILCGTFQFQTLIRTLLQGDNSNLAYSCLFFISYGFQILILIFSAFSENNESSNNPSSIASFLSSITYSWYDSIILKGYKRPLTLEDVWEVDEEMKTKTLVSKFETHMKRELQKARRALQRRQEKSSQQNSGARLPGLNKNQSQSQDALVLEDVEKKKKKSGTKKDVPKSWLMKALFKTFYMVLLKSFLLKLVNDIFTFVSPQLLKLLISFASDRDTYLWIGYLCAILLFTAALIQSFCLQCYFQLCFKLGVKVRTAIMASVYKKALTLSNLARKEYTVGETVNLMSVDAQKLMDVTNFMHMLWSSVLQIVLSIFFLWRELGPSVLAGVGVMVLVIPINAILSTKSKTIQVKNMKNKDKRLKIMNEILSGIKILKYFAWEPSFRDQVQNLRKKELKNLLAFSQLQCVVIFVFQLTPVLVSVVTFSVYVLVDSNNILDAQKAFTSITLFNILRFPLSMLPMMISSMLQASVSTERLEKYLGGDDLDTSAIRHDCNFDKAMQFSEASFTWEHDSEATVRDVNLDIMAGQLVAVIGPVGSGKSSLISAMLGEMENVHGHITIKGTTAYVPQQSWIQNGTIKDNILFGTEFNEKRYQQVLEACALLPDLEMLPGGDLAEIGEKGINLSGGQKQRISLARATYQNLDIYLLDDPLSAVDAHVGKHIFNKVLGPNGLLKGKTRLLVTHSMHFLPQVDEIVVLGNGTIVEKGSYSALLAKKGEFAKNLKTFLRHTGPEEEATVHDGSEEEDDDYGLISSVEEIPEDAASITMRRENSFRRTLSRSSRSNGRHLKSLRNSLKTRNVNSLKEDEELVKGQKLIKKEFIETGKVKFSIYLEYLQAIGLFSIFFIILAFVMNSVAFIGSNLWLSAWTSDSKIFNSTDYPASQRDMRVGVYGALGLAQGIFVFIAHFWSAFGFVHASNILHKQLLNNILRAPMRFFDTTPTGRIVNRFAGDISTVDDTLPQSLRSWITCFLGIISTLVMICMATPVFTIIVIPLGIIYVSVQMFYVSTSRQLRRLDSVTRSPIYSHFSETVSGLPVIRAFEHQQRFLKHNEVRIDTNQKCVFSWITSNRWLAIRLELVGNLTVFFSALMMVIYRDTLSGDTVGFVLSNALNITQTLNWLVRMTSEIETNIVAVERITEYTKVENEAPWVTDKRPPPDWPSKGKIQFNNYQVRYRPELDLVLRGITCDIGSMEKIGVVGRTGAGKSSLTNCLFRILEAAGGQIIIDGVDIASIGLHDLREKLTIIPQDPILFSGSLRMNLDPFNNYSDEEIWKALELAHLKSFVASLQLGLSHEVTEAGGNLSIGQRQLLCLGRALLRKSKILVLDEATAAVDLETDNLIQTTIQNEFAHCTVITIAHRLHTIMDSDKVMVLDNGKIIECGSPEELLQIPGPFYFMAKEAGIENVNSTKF

Consider `O=c1c(O)c(-c2ccc(O)c(O)c2)oc2cc(O)cc(O)c12` [QUERCETIN], for which the Activity result was “inducer [+]”.
